Data on 1 compound can be found in publication PMC10262918, “Stapled peptide PROTAC induced significantly greater anti-PD-L1 effects than inhibitor in human cervical cancer cells” (Frontiers in Immunology, 2023).

Each structure is given as a SMILES string.

This test has as its system PD-L1 in C33A cells. In words: Western blotting of PD-L1 level in C33A cells. In kind it is cell-based, human. As to conditions: 4 h treatment, mean of 3 independent experiments, read-out: IC50 of PD-L1 decrease. The procedure: C33A and HeLa cells were plated in 6-well plates and treated with the stapled peptide at the indicated concentrations for the specified time, followed by lysis in RIPA buffer containing protease inhibitor. Protein samples were prepared using a BCA Protein Assay Kit (Beyotime). A total of 50 µg of protein were added per lane, separated by 10% SDS-PAGE, and subsequently transferred onto polyvinylidene fluoride (PVDF) membrane. The membrane was blocked with 5% skimmed milk for 2 h at room temperature. Primary antibodies including anti-PD-L1 (Abcam, ab213524) and anti-GAPDH (Abcam, ab9485) antibodies were diluted in primary antibody dilution buffer (Biosharp) and incubated with PVDF membrane at 4°C overnight. Next, the membrane was incubated with goat anti-mouse/anti-rabbit secondary antibodies (Proteintech, SA00001-1, SA00001-2) at room temperature for 1 h. After washing with TBST thrice for 5 min each, the proteins were detected using enhanced chemiluminescence (ECL) reagents (Vazyme) and a ChemiDoc XRS imaging system (Bio-Rad Laboratories).

`Cc1c(COc2ccc(CN3CCCCC3C(=O)O)cc2Br)cccc1-c1ccccc1` (stereo not shown) [BMS-8]: the IC50 stood at 7.79 µM.
